As a reminder, the IC50 is the concentration that inhibits the measured activity by half. By inhibition is commonly meant the drop in the measured response relative to a control, in per cent. As usually defined, the Kd is the equilibrium constant for the complex coming apart. Low values mean tighter binding, high ones weaker binding.

Experimental findings from patent publication US11034658B2, “Pyridinyl pyrazoles as modulators of RORγT” (Janssen Pharmaceutica NV, priority 2018, dated 2021) are described below.

In test [1] the target is full-length human RORγt (GAL4-DBD-RORγt fusion) in HEK293T cells (Homo sapiens (Human), UniProt P51449). Nature of the test: RORγt (full-length human) reporter assay, conditions A or B. Conditions: for IC50: HEK293T cells, read-out: RORγt (FL) Reporter Assay A or B, IC50; for inhibition at 3 µM: 3 μM compound concentration (footnote *). In kind it is cell-based. As for the experimental part:
RORγt (Full-Length Human) Reporter Assay:
(§1) HEK293T cells were plated at 35,000 per well in 96-well plate in medium of DMEM with 10% FBS. […] After overnight (16 to 20 hours) incubation, media were removed and cells were lysed with 50 μL Glo Lysis Buffer (Promega) for 10-15 minutes followed by 10 minute incubation with 50 μL Dual Glo reagent (Promega) at room temperature. Firefly luciferase luminescence was measured using a BMG Pherastar plate reader. To each well, 50 μL Stop and Glo reagent was added and incubated for 10 minutes at room temperature. Renilla luminescence was measured using a BMG Pherastar plate reader. To calculate the effect of compounds on RORγt activity, firefly values were normalized against values of DMSO only and values of reference compound at saturating concentration, then further normalized against Renilla signals. IC50s were generated by plotting final Renilla normalized data against compound concentration and percent inhibition was calculated against DMSO control.
as §1, with “at 8750 cells” for “at 35,000”, “in 384-well” for “in 96-well”, “with 20” for “with 50”, “well, 20” for “well, 50”

For test [2], the target named is human RORγt ligand binding domain (RORγt LBD) (Homo sapiens (Human), UniProt P51449). Nature of the test: RORγt ThermoFluor assay. From the text:
ThermoFluor® is a fluorescence based assay that estimates ligand binding affinities by measuring the effect of a ligand on protein thermal stability (Pantoliano, M. W., Petrella, E. C., Kwasnoski, J. D., Lobanov, V. S., Myslik, J., Graf, E., Carver, T., Asel, E., Springer, B. A., Lane, P., and Salemme, F. R. (2001) High-density miniaturized thermal shift assays as a general strategy for drug discovery. J Biomol Screen 6, 429-40, and Matulis, D., Kranz, J. K., Salemme, F. R., and Todd, M. J. (2005) Thermodynamic stability of carbonic anhydrase: measurements of binding affinity and stoichiometry using ThermoFluor. Biochemistry 44, 5258-66). This approach is applicable to a wide variety of systems, and rigorous in theoretical interpretation through quantitation of equilibrium binding constants (KD).
The shift in the melting point described as a ΔTm is proportional to the concentration and affinity of the ligand. The compound potency may be compared as a rank order of either values at a single compound concentration or in terms of KD values, estimated from concentration response curves.
RORγt ThermoFluor® Assay Construct
For the RORγt construct used in the ThermoFluor® assay, numbering for the nucleotide sequences was based on the reference sequence for human RORγt, transcript variant 2, NCBI Accession: NM 001001523.1 (SEQ ID NO:1). Nucleotides 850-1635 (SEQ ID NO:2) coding for the wild type human RORγt ligand binding domain (RORγt LBD) were cloned into the pHIS1 vector, a modified pET E. coli expression vector (Accelagen, San Diego), containing an in-frame N-terminal His-tag and a TurboTEV protease cleavage site (ENLYFQG, SEQ ID NO:3) upstream of the cloned insert sequence. The amino acid sequence for the RORγt construct used in the Thermofluor® assay is shown as SEQ ID NO:4.
ThermoFluor® experiments were carried out using instruments owned by Janssen Research and Development, L.L.C. through its acquisition of 3-Dimensional Pharmaceuticals, Inc. 1,8-ANS (Invitrogen) was used as a fluorescent dye. Protein and compound solutions are dispensed into black 384-well polypropylene PCR microplates (Abgene) and overlayed with silicone oil (1 μL, Fluka, type DC 200) to prevent evaporation.
Bar-coded assay plates are robotically loaded onto a thermostatically controlled PCR-type thermal block and then heated at a typical ramp-rate of 1° C./min for all experiments. Fluorescence was measured by continuous illumination with UV light (Hamamatsu LC6) supplied via fiber optic and filtered through a band-pass filter (380-400 nm; >6 OD cutoff). Fluorescence emission of the entire 384-well plate was detected by measuring light intensity using a CCD camera (Sensys, Roper Scientific) filtered to detect 500±25 nm, resulting in simultaneous and independent readings of all 384 wells. Images were collected at each temperature, and the sum of the pixel intensity in a given area of the assay plate was recorded versus temperature. Reference wells contained RORγt without compounds, and the assay conditions were as follows:
Project compounds were arranged in a pre-dosed mother plate (Greiner Bio-one) wherein compounds are serially diluted in 100% DMSO by 1:2 from a high concentration of 10 mM over 12 columns within a series (column 12 is a reference well containing DMSO, no compound). The compounds were robotically dispensed directly into assay plates (1×=46 nL) using a Hummingbird capillary liquid handling instrument (Digilab). Following compound dispense, protein and dye in buffer was added to achieve the final assay volume of 3 μL, followed by 1 μL of silicone oil.
The binding affinity was estimated as described previously (Matulis, D., Kranz, J. K., Salemme, F. R., and Todd, M. J. (2005) Thermodynamic stability of carbonic anhydrase: measurements of binding affinity and stoichiometry using ThermoFluor®. Biochemistry 44, 5258-66) using the following thermodynamic parameters of protein unfolding:
Reference RORγt Tm: 47.8° C.

[3] abbreviates: HEK-293T, read-out: RORγt (FL) Reporter Assay A or B, % inhibition.

Sequence of full-length human RORγt (GAL4-DBD-RORγt fusion) in HEK293T cells (P51449 other isoform, or with tags, fused parts or gaps): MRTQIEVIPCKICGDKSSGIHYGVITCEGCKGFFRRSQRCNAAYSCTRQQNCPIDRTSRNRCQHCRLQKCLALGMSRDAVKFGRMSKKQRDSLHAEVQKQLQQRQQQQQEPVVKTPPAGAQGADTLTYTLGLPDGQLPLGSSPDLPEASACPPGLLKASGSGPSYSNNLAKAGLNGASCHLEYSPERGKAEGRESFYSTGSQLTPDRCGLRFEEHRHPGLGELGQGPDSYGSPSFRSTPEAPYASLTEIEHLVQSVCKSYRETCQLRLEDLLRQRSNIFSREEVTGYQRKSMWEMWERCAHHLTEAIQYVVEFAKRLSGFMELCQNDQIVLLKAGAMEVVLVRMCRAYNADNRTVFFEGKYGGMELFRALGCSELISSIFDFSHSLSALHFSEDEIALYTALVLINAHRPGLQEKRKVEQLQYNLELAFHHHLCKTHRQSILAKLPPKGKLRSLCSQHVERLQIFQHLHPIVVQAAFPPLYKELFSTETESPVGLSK
Sequence of human RORγt ligand binding domain (RORγt LBD) (P51449 other isoform, or with tags, fused parts or gaps): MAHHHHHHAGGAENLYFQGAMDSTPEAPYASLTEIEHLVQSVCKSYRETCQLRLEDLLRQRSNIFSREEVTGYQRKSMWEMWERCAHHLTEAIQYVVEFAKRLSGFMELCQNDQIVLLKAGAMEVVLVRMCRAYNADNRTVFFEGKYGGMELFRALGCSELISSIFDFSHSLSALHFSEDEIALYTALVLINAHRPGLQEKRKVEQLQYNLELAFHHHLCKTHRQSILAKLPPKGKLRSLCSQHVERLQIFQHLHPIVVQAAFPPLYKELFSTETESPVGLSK

In the case of `CCn1nc(C(=O)NC[C@@]2(O)CC[C@H](S(C)(=O)=O)C[C@@H]2O)c(C)c1-c1ccc(CC(C)(C)C(F)(F)F)nc1OC(F)F` (relative stereo) [Example 51, 5-(2-(Difluoromethoxy)-6-(3,3,3-trifluoro-2,2-dimethylpropyl)pyridin-3-yl)-N-(((1S*,2S*,4S*)-1,2-dihydroxy-4-(methylsulfonyl)cyclohexyl)methyl)-1-ethyl-4-methyl-1H-pyrazole-3-carboxamide], the 50% inhibitory concentration (IC50) in test [1] was 0.035 µM. In addition, the inhibition at 3 µM in test [1] (setting [3]) worked out at 97%. In test [2], binding was characterised by a dissociation constant (Kd) of 0.0032 µM.
In the same order, the values of `CCn1nc(C(=O)NC[C@H]2CC[C@H](S(C)(=O)=O)CC2)c(Cl)c1-c1cnc(C[C@H](C)C(F)(F)F)cc1OC(F)F` (single isomer, unassigned) [Example 14, 4-Chloro-5-(4-(difluoromethoxy)-6-((S*)-3,3,3-trifluoro-2-methylpropyl)pyridin-3-yl)-1-ethyl-N-(((1r,4S)-4-(methylsulfonyl)cyclohexyl)methyl)-1H-pyrazole-3-carboxamide] are 0.036 µM, 82% and 0.0036 µM.
For `CCn1nc(C(=O)NC[C@]2(O)CC[C@@H](S(C)(=O)=O)CC2)c(Cl)c1-c1cnc(C[C@H](C)C(F)(F)F)cc1OC(F)F` (single isomer, unassigned) [Example 15, 4-Chloro-5-(4-(difluoromethoxy)-6-((S*)-3,3,3-trifluoro-2-methylpropyl)pyridin-3-yl)-1-ethyl-N-(((1s,4R)-1-hydroxy-4-(methylsulfonyl)cyclohexyl)methyl)-1H-pyrazole-3-carboxamide], the IC50 in test [1] was 0.098 µM. Also, in test [1] (setting [3]), the inhibition at 3 µM stood at 71%. Also, the Kd in test [2] came to 0.012 µM.
In the same order, the values of `CCn1nc(C(=O)NC[C@H]2CC[C@H](S(C)(=O)=O)CC2)c(C)c1-c1cnc(C[C@H](C)C(F)(F)F)cc1OC(F)F` (single isomer, unassigned) [Example 16, 5-(4-(Difluoromethoxy)-6-((S*)-3,3,3-trifluoro-2-methylpropyl)pyridin-3-yl)-1-ethyl-4-methyl-N-(((1r,4S)-4-(methylsulfonyl)cyclohexyl)methyl)-1H-pyrazole-3-carboxamide] are 0.016 µM, 101% and 0.0052 µM.
As to `CCn1nc(C(=O)NC[C@H]2CC[C@H](S(C)(=O)=O)CC2)c(Cl)c1-c1cnc(C[C@@H](C)C(F)(F)F)cc1OC(F)F` (single isomer, unassigned) [Example 17, 4-Chloro-5-(4-(difluoromethoxy)-6-((R*)-3,3,3-trifluoro-2-methylpropyl)pyridin-3-yl)-1-ethyl-N-(((1r,4R)-4-(methylsulfonyl)cyclohexyl)methyl)-1H-pyrazole-3-carboxamide], in test [1], the IC50 was determined as 0.034 µM. Further, the inhibition at 3 µM in test [1] (setting [3]) was 125%. Moreover, in test [2], the Kd was 0.0041 µM.
Take `CCn1nc(C(=O)NC[C@]2(O)CC[C@@H](S(C)(=O)=O)CC2)c(Cl)c1-c1cnc(C[C@@H](C)C(F)(F)F)cc1OC(F)F` (single isomer, unassigned) [Example 18, 4-Chloro-5-(4-(difluoromethoxy)-6-((R*)-3,3,3-trifluoro-2-methylpropyl)pyridin-3-yl)-1-ethyl-N-(((1s,4S)-1-hydroxy-4-(methylsulfonyl)cyclohexyl)methyl)-1H-pyrazole-3-carboxamide]: in test [1], the IC50 amounted to 0.14 µM. For the same compound, in test [1] (setting [3]), the inhibition at 3 µM was determined as 100%. The same compound returned a Kd in test [2] of 0.018 µM.
As for `CCn1nc(C(=O)NC[C@H]2CC[C@H](S(C)(=O)=O)CC2)c(C)c1-c1cnc(C[C@@H](C)C(F)(F)F)cc1OC(F)F` (single isomer, unassigned) [Example 19, 5-(4-(Difluoromethoxy)-6-((R*)-3,3,3-trifluoro-2-methylpropyl)pyridin-3-yl)-1-ethyl-4-methyl-N-(((1r,4R)-4-(methylsulfonyl)cyclohexyl)methyl)-1H-pyrazole-3-carboxamide], the IC50 in test [1] came out at 0.04 µM. Besides, the inhibition at 3 µM in test [1] (setting [3]) is 105%. The compound also registered a Kd in test [2] of 0.017 µM.
`CCn1nc(C(=O)NC[C@]2(O)CC[C@@H](S(C)(=O)=O)CC2)c(C)c1-c1cnc(C[C@@H](C)C(F)(F)F)cc1OC(F)F` (single isomer, unassigned) [Example 20, 5-(4-(Difluoromethoxy)-6-((R*)-3,3,3-trifluoro-2-methylpropyl)pyridin-3-yl)-1-ethyl-N-(((1s,4S)-1-hydroxy-4-(methylsulfonyl)cyclohexyl)methyl)-4-methyl-1H-pyrazole-3-carboxamide]: the concentration for half-maximal inhibition (IC50) in test [1] came to 0.099 µM. Moreover, the inhibition at 3 µM in test [1] (setting [3]) came out at 123%. In addition, in test [2], the Kd was 0.034 µM.
Take `CCn1nc(C(=O)NC[C@H]2CC[C@H](S(C)(=O)=O)CC2)c(Cl)c1-c1cnc(C[C@@H](C)C(F)(F)F)cc1OC` (single isomer, unassigned) [Example 61, 4-Chloro-1-ethyl-5-(4-methoxy-6-((R*)-3,3,3-trifluoro-2-methylpropyl)pyridin-3-yl)-N-((1r,4r)-4-(methylsulfonyl)cyclohexyl)methyl)-1H-pyrazole-3-carboxamide]: the IC50 in test [1] is 0.11 µM. For the same compound, in test [1] (HEK-293T, 2 μM compound concentration, read-out: RORγt (FL) Reporter Assay A or B, % inhibition), the inhibition at 2 µM was 87%. Also, the dissociation constant (Kd) in test [2] is 0.016 µM.
`CCn1nc(C(=O)NC[C@]2(O)CC[C@@H](S(C)(=O)=O)C[C@H]2O)c(Cl)c1-c1cnc(CC(C)(C)C(F)(F)F)cc1OC(F)F` (stereo in doubt) [Example 3, 4-Chloro-5-(4-(difluoromethoxy)-6-(3,3,3-trifluoro-2,2-dimethylpropyl)pyridin-3-yl)-N-(((1R*,2R*,4R*)-1,2-dihydroxy-4-(methylsulfonyl)cyclohexyl)methyl)-1-ethyl-1H-pyrazole-3-carboxamide]: the half-maximal inhibitory concentration (IC50) in test [1] turned out to be 0.063 µM. Further, the inhibition at 3 µM in test [1] (setting [3]) was found to be 105%. This compound also yielded a dissociation constant Kd in test [2] of 0.0081 µM.
